Experimental data from the supplement of paper PMC13207355.

Columns and labels:
Conditions in all cases: exposure time: 72 h
E34 [1] = patient-derived glioblastoma stem cells of proneural subtype; experiment: phenotypic distance (Euclidean, principal components) from DMSO controls (arbitrary units); higher = stronger morphological change
E31 [2] = patient-derived glioblastoma stem cells of proneural subtype; experiment: as above
E21 [3] = patient-derived glioblastoma stem cells of mesenchymal subtype; experiment: as above
E28 [4] = patient-derived glioblastoma stem cells of classical subtype; experiment: as above
E57 [5] = patient-derived glioblastoma stem cells of mesenchymal subtype; experiment: as above
E13 [6] = patient-derived glioblastoma stem cells of classical subtype; experiment: as above
FT3469 [7] = normal neural stem cell line; experiment: as above
E34 [8] = experiment: surviving fraction (nuclei count normalised to DMSO); higher = more cells surviving (less toxic)
E31 [9] = experiment: as above
E21 [10] = experiment: as above
E28 [11] = experiment: as above
E57 [12] = experiment: as above
E13 [13] = experiment: as above
FT3469 [14] = experiment: as above
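For phenotypic distance (Euclidean, principal components) from DMSO controls in this document: cell Painting imaging in 384-well plates, CellProfiler features reduced to at least 20 principal components, Euclidean distance versus same-plate DMSO vehicle wells (0.1% v/v), median over six images per well.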
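For surviving fraction (nuclei count normalised to DMSO) in this document: nuclei counted by high-content imaging of Hoechst-stained cells in laminin-coated 384-well plates, relative to 0.1% DMSO vehicle wells, with staurosporine as cell-death control.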

C[C@@]12C(=O)OC(=O)[C@]1(C)[C@H]1CC[C@@H]2O1 [Cantharidin]
Conditions	phenotypic distance	surviving fraction
E13 [6], 4.1 nM	0.99	–
E13 [6], 12.3 nM	0.872	–
E13 [6], 37 nM	1.04	–
E13 [6], 111.1 nM	2.26	–
E13 [6], 333.3 nM	7.52	–
E13 [6], 1000 nM	22.3	–
E13 [6], 3000 nM	22.7	–
E13 [13], 4.1 nM	–	0.826
E13 [13], 12.3 nM	–	0.96
E13 [13], 37 nM	–	0.919
E13 [13], 111.1 nM	–	0.735
E13 [13], 333.3 nM	–	0.139
E13 [13], 1000 nM	–	0.000925
E13 [13], 3000 nM	–	0
E21 [3], 4.1 nM	0.902	–
E21 [3], 12.3 nM	0.679	–
E21 [3], 37 nM	0.822	–
E21 [3], 111.1 nM	2.07	–
E21 [3], 333.3 nM	7.76	–
E21 [3], 1000 nM	24.2	–
E21 [3], 3000 nM	19.8	–
E21 [10], 4.1 nM	–	0.865
E21 [10], 12.3 nM	–	1.05
E21 [10], 37 nM	–	0.984
E21 [10], 111.1 nM	–	0.819
E21 [10], 333.3 nM	–	0.148
E21 [10], 1000 nM	–	0.00198
E21 [10], 3000 nM	–	0.00297
E28 [4], 4.1 nM	0.669	–
E28 [4], 12.3 nM	0.782	–
E28 [4], 37 nM	1.16	–
E28 [4], 111.1 nM	2.74	–
E28 [4], 333.3 nM	6.99	–
E28 [4], 1000 nM	10.5	–
E28 [4], 3000 nM	17.9	–
E28 [11], 4.1 nM	–	1.04
E28 [11], 12.3 nM	–	1.01
E28 [11], 37 nM	–	0.751
E28 [11], 111.1 nM	–	0.783
E28 [11], 333.3 nM	–	0.171
E28 [11], 1000 nM	–	0.0107
E28 [11], 3000 nM	–	0
E31 [2], 4.1 nM	1.14	–
E31 [2], 12.3 nM	0.733	–
E31 [2], 37 nM	1.22	–
E31 [2], 111.1 nM	2.51	–
E31 [2], 333.3 nM	10.8	–
E31 [2], 1000 nM	17.7	–
E31 [2], 3000 nM	15.6	–
E31 [9], 4.1 nM	–	0.771
E31 [9], 12.3 nM	–	0.967
E31 [9], 37 nM	–	0.793
E31 [9], 111.1 nM	–	0.531
E31 [9], 333.3 nM	–	0.0179
E31 [9], 1000 nM	–	0
E31 [9], 3000 nM	–	0.00163
E34 [1], 4.1 nM	0.932	–
E34 [1], 12.3 nM	0.828	–
E34 [1], 37 nM	0.895	–
E34 [1], 111.1 nM	2.91	–
E34 [1], 333.3 nM	8.47	–
E34 [1], 1000 nM	14.9	–
E34 [1], 3000 nM	24.2	–
E34 [8], 4.1 nM	–	0.848
E34 [8], 12.3 nM	–	1.05
E34 [8], 37 nM	–	1.05
E34 [8], 111.1 nM	–	0.764
E34 [8], 333.3 nM	–	0.323
E34 [8], 1000 nM	–	0.0804
E34 [8], 3000 nM	–	0.0035
E57 [5], 4.1 nM	4.16	–
E57 [5], 12.3 nM	0.795	–
E57 [5], 37 nM	0.509	–
E57 [5], 111.1 nM	1.44	–
E57 [5], 333.3 nM	7.24	–
E57 [5], 1000 nM	9.13	–
E57 [5], 3000 nM	24.7	–
E57 [12], 4.1 nM	–	0.874
E57 [12], 12.3 nM	–	0.97
E57 [12], 37 nM	–	0.933
E57 [12], 111.1 nM	–	0.882
E57 [12], 333.3 nM	–	0.172
E57 [12], 1000 nM	–	0.00764
E57 [12], 3000 nM	–	0.00204
FT3469 [7], 4.1 nM	1.54	–
FT3469 [7], 12.3 nM	0.532	–
FT3469 [7], 37 nM	1.22	–
FT3469 [7], 111.1 nM	1.87	–
FT3469 [7], 333.3 nM	5.81	–
FT3469 [7], 1000 nM	10.9	–
FT3469 [7], 3000 nM	17.1	–
FT3469 [14], 4.1 nM	–	0.78
FT3469 [14], 12.3 nM	–	1.06
FT3469 [14], 37 nM	–	0.835
FT3469 [14], 111.1 nM	–	0.714
FT3469 [14], 333.3 nM	–	0.276
FT3469 [14], 1000 nM	–	0.0288
FT3469 [14], 3000 nM	–	0.00288

COc1cc([C@@H]2c3cc4c(cc3[C@@H](O[C@@H]3O[C@@H]5CO[C@@H](C)O[C@H]5[C@H](O)[C@H]3O)[C@H]3COC(=O)[C@H]23)OCO4)cc(OC)c1O [Etoposide]
Conditions	phenotypic distance	surviving fraction
E13 [6], 4.11523 nM	1.04	–
E13 [6], 12.34567901 nM	0.799	–
E13 [6], 37.037 nM	0.736	–
E13 [6], 111.1111111 nM	0.704	–
E13 [6], 333.333 nM	2.88	–
E13 [6], 1000 nM	4.56	–
E13 [6], 3000 nM	5.77	–
E13 [13], 4.11523 nM	–	1.03
E13 [13], 12.34567901 nM	–	0.806
E13 [13], 37.037 nM	–	0.901
E13 [13], 111.1111111 nM	–	0.78
E13 [13], 333.333 nM	–	0.516
E13 [13], 1000 nM	–	0.473
E13 [13], 3000 nM	–	0.374
E21 [3], 4.11523 nM	0.716	–
E21 [3], 12.34567901 nM	0.855	–
E21 [3], 37.037 nM	0.967	–
E21 [3], 111.1111111 nM	1.35	–
E21 [3], 333.333 nM	2.88	–
E21 [3], 1000 nM	5.75	–
E21 [3], 3000 nM	5.93	–
E21 [10], 4.11523 nM	–	0.896
E21 [10], 12.34567901 nM	–	0.855
E21 [10], 37.037 nM	–	0.885
E21 [10], 111.1111111 nM	–	0.812
E21 [10], 333.333 nM	–	0.588
E21 [10], 1000 nM	–	0.47
E21 [10], 3000 nM	–	0.298
E28 [4], 4.11523 nM	0.783	–
E28 [4], 12.34567901 nM	1.11	–
E28 [4], 37.037 nM	1.44	–
E28 [4], 111.1111111 nM	1.78	–
E28 [4], 333.333 nM	2.64	–
E28 [4], 1000 nM	2.9	–
E28 [4], 3000 nM	2.64	–
E28 [11], 4.11523 nM	–	0.881
E28 [11], 12.34567901 nM	–	0.762
E28 [11], 37.037 nM	–	0.621
E28 [11], 111.1111111 nM	–	0.419
E28 [11], 333.333 nM	–	0.436
E28 [11], 1000 nM	–	0.266
E28 [11], 3000 nM	–	0.364
E31 [2], 4.11523 nM	0.939	–
E31 [2], 12.34567901 nM	0.828	–
E31 [2], 37.037 nM	1.58	–
E31 [2], 111.1111111 nM	3.2	–
E31 [2], 333.333 nM	4.03	–
E31 [2], 1000 nM	2	–
E31 [2], 3000 nM	2.86	–
E31 [9], 4.11523 nM	–	0.746
E31 [9], 12.34567901 nM	–	0.823
E31 [9], 37.037 nM	–	0.554
E31 [9], 111.1111111 nM	–	0.493
E31 [9], 333.333 nM	–	0.307
E31 [9], 1000 nM	–	0.283
E31 [9], 3000 nM	–	0.231
E34 [1], 4.11523 nM	0.877	–
E34 [1], 12.34567901 nM	0.742	–
E34 [1], 37.037 nM	0.789	–
E34 [1], 111.1111111 nM	1.03	–
E34 [1], 333.333 nM	2.75	–
E34 [1], 1000 nM	3.46	–
E34 [1], 3000 nM	4.17	–
E34 [8], 4.11523 nM	–	0.83
E34 [8], 12.34567901 nM	–	0.966
E34 [8], 37.037 nM	–	0.848
E34 [8], 111.1111111 nM	–	0.873
E34 [8], 333.333 nM	–	0.668
E34 [8], 1000 nM	–	0.534
E34 [8], 3000 nM	–	0.557
E57 [5], 4.11523 nM	0.758	–
E57 [5], 12.34567901 nM	0.794	–
E57 [5], 37.037 nM	0.549	–
E57 [5], 111.1111111 nM	1.24	–
E57 [5], 333.333 nM	4.25	–
E57 [5], 1000 nM	6.83	–
E57 [5], 3000 nM	7.52	–
E57 [12], 4.11523 nM	–	0.919
E57 [12], 12.34567901 nM	–	1.01
E57 [12], 37.037 nM	–	0.959
E57 [12], 111.1111111 nM	–	0.851
E57 [12], 333.333 nM	–	0.435
E57 [12], 1000 nM	–	0.295
E57 [12], 3000 nM	–	0.182
FT3469 [7], 4.11523 nM	0.576	–
FT3469 [7], 12.34567901 nM	0.799	–
FT3469 [7], 37.037 nM	3.73	–
FT3469 [7], 111.1111111 nM	1.07	–
FT3469 [7], 333.333 nM	1.54	–
FT3469 [7], 1000 nM	2.2	–
FT3469 [7], 3000 nM	1.92	–
FT3469 [14], 4.11523 nM	–	0.827
FT3469 [14], 12.34567901 nM	–	0.774
FT3469 [14], 37.037 nM	–	0.902
FT3469 [14], 111.1111111 nM	–	0.731
FT3469 [14], 333.333 nM	–	0.662
FT3469 [14], 1000 nM	–	0.582
FT3469 [14], 3000 nM	–	0.566
